Values of other authors as cited in patent US7618976B2, “Methods for the production of sildenafil base and citrate salt” (Teva Pharmaceutical Industries Ltd, priority 2004, dated 2009).

Tested on: isolated human corpus cavernosum

## CCCc1nn(C)c2c(=O)[nH]c(-c3cc(S(=O)(=O)N4CCN(C)CC4)ccc3OCC)nc12 [Sildenafil]
  direct relaxant effect on isolated human corpus cavernosum: no direct relaxant effect
